Experimental data taken from US8835134B2, “Cycloastragenol monoglucoside, preparation, pharmaceutical composition and application thereof” (Tianjin Institute of Pharmaceutical Research, priority 2007, dated 2014).

Tested on: anesthetized open-chest dogs
Test: Hemodynamics of anesthetized open-chest dogs, intravenous infusion
Assay type: in vivo, mongrel dogs
Protocol: The animals were anesthetized by intravenous injection of 30 mg/kg sodium pentobarbital, tracheally intubated, and mechanically ventilated with positive air pressure. Left thoracotomy was performed through the fourth intercostal space and the heart was suspended in a pericardial cradle, the aortic root was isolated and a probe of blood flow meter (12 or 14 mm in diameter) was fixed to measure the aortic blood flow as a representation of cardiac output (CO), the circumflex branch of left coronary artery was isolated and a probe of blood flow meter (2 or 2.5 mm in diameter) was fixed to measure the coronary blood flow (CBF). A polyethylene catheter filled with heparin physiological saline was inserted through cardiac apex into the left ventricle to measure the left ventricular pressure (LVP) and left ventricular end-diastolic pressure (LVEDP), Peak positive and peak negative first derivatives of the LVP (+ LVdp/dt and − LVdp/dt) were calculated with the Acknowledge software. The systolic blood pressure (SBP), diastolic blood pressure (DBP) and mean arterial pressure (MAP) were measured by polyethylene catheter via the femoral artery, ECG □ was measured by a AC-601G ECG amplifier. The above-mentioned analog signal was input into a data acquisition workstation (MP100, BIOPAC Systems, USA) to a computer running Acknowledge (version 3.7.1).
After surgery, various indexes before administration were recorded until the indexes were stable, and then intravenous infusion administration was conducted. Thirty dogs were divided into five groups (six dogs in each group), the experiment groups were given 0.15, 0.3, 0.6 mg/kg of ASP-[…] respectively, the normal control group was given 1 ml/kg of solvent, and the positive control group was given 0.3 mg/kg of astragaloside IV. The delivery volumes were 15 ml for each dog was and the delivery velocity was 1 ml/min. The indexes were recorded at 5, 10, 15, 20, 30, 45, 60, 90 and 120 mins after drug administration. At the end of experiment, the hearts were excised and weighted. The myocardial blood flow for per hectogram (CF), coronary resistance (CR), cardiac index (CI), left ventricular work (LVW) and total peripheral resistance (TPR) were calculated according to the following formulae: CF=CBF×[…]/heart weight CR=MAP/CF CI=CO/0.11×(body weight)^2/3 LVW=CO×(MAP−5)×1.052×0.0136 TPR=MAP×79.92/CO
Data are expressed as mean±SD ( x±s), the paired t-test was used to compare the significance between before and after administration, the unpaired t-test was adopted for comparison between groups.

[1] = 0.15 mg/kg iv, 90 min after administration
[2] = 0.15 mg/kg iv, 120 min after administration
[3] = 0.15 mg/kg iv, before administration
[4] = 0.3 mg/kg iv, 5 min after administration
[5] = 0.3 mg/kg iv, 10 min after administration
[6] = 0.3 mg/kg iv, 15 min after administration
[7] = 0.3 mg/kg iv, 20 min after administration
[8] = 0.3 mg/kg iv, 30 min after administration

SMILES: CC(C)(O)[C@@H]1CC[C@](C)([C@H]2[C@@H](O)C[C@@]3(C)C4C[C@H](OC5OC(CO)C(O)C(O)C5O)C5C(C)(C)[C@@H](O)CC[C@@]56C[C@@]46CC[C@]23C)O1 (stereo partly drawn) [CMG, Cycloastragenol-6-O-β-D-glucoside]
- CO change vs before administration [1]: (−0.15 ± 0.24) L/min
- CR [1]: 1.36 ± 0.37 mmHg/ml/min/100 g
- CR change vs before administration [1]: (0.00 ± 0.24) mmHg/ml/min/100 g
- LVEDP [1]: 1.4 ± 2.4 mmHg
- LVEDP change vs before administration [1]: (−0.40 ± 0.43) mmHg
- LVP [1]: 101 ± 18 mmHg
- LVP change vs before administration [1]: (−3.5 ± 7.6) mmHg
- LVW [1]: 0.96 ± 0.24 kg · m
- LVW change vs before administration [1]: (−0.16 ± 0.34) kg · m
- TPR [1]: 5576 ± 2153 dyn · s/cm^5
- TPR change vs before administration [1]: (426 ± 770) dyn · s/cm^5
- dp/dt [1]: 1121 ± 412 mmHg/s
- dp/dt change vs before administration [1]: (−28 ± 90) mmHg/s
- −dp/dt [1]: −857 ± 243 mmHg/s
- −dp/dt change vs before administration [1]: (31 ± 128) mmHg/s
- CF [2]: 56.5 ± 16.6 ml/min/100 g
- CF change vs before administration [2]: (−1.2 ± 13.7) ml/min/100 g
- CI [2]: 1.79 ± 0.37 L/min/m^2
- CI change vs before administration [2]: (−0.29 ± 0.45) L/min/m^2
- CO [2]: 1.03 ± 0.19 L/min
- CO change vs before administration [2]: (−0.17 ± 0.28) L/min
- CR [2]: 1.35 ± 0.44 mmHg/ml/min/100 g
- CR change vs before administration [2]: (−0.01 ± 0.25) mmHg/ml/min/100 g
- LVEDP [2]: 1.6 ± 2.3 mmHg
- LVEDP change vs before administration [2]: (−0.15 ± 0.44) mmHg
- LVP [2]: 103 ± 22 mmHg
- LVP change vs before administration [2]: (−1.8 ± 8.1) mmHg
- LVW [2]: 0.99 ± 0.36 kg · m
- LVW change vs before administration [2]: (−0.13 ± 0.37) kg · m
- TPR [2]: 5734 ± 1774 dyn · s/cm^5
- TPR change vs before administration [2]: (584 ± 1030) dyn · s/cm^5
- dp/dt [2]: 1138 ± 387 mmHg/s
- dp/dt change vs before administration [2]: (−11 ± 92) mmHg/s
- −dp/dt [2]: −897 ± 263 mmHg/s
- −dp/dt change vs before administration [2]: (−9 ± 176) mmHg/s
- CF [3]: 57.7 ± 24.1 ml/min/100 g
- CI [3]: 2.08 ± 0.63 L/min/m^2
- CO [3]: 1.21 ± 0.38 L/min
- CR [3]: 1.35 ± 0.44 mmHg/ml/min/100 g
- LVEDP [3]: 1.8 ± 2.2 mmHg
- LVP [3]: 105 ± 22 mmHg
- LVW [3]: 1.12 ± 0.42 kg · m
- TPR [3]: 5150 ± 2321 dyn · s/cm^5
- dp/dt [3]: 1150 ± 391 mmHg/s
- −dp/dt [3]: −888 ± 310 mmHg/s
- ±LVdp/dtmax (0.15 mg/kg iv, within 120 min): no significant change
- LVEDP maximum decrease (0.3 mg/kg iv): 1.5±0.8 mmHg
- CF [4]: 51.7 ± 20.7 ml/min/100 g
- CF change vs before administration [4]: (1.5 ± 5.3) ml/min/100 g
- CI [4]: 2.09 ± 0.86 L/min/m^2
- CI change vs before administration [4]: (0.11 ± 0.16) L/min/m^2
- CO [4]: 1.16 ± 0.39 L/min
- CO change vs before administration [4]: (0.06 ± 0.09) L/min
- CR [4]: 1.57 ± 0.74 mmHg/ml/min/100 g
- CR change vs before administration [4]: (0.04 ± 0.17) mmHg/ml/min/100 g
- LVEDP [4]: 1.3 ± 2.5 mmHg
- LVEDP change vs before administration [4]: (−0.39 ± 0.38) mmHg
- LVP [4]: 107 ± 21 mmHg
- LVP change vs before administration [4]: (4.1 ± 4.9) mmHg
- LVW [4]: 1.12 ± 0.49 kg · m
- LVW change vs before administration [4]: (0.10 ± 0.07) kg · m
- TPR [4]: 5248 ± 1878 dyn · s/cm^5
- TPR change vs before administration [4]: (−52 ± 829) dyn · s/cm^5
- dp/dt [4]: 1308 ± 448 mmHg/s
- dp/dt change vs before administration [4]: (47 ± 34) mmHg/s
- −dp/dt [4]: −958 ± 313 mmHg/s
- −dp/dt change vs before administration [4]: (−37 ± 44) mmHg/s
- CF [5]: 53.5 ± 21.1 ml/min/100 g
- CF change vs before administration [5]: (3.3 ± 3.2) ml/min/100 g
- CI [5]: 1.96 ± 0.85 L/min/m^2
- CI change vs before administration [5]: (−0.03 ± 0.23) L/min/m^2
- CO [5]: 1.09 ± 0.39 L/min
- CO change vs before administration [5]: (−0.01 ± 0.14) L/min
- CR [5]: 1.50 ± 0.71 mmHg/ml/min/100 g
- CR change vs before administration [5]: (−0.03 ± 0.12) mmHg/ml/min/100 g
- LVEDP [5]: 1 ± 2.4 mmHg
- LVEDP change vs before administration [5]: (−0.75 ± 0.34) mmHg
- LVP [5]: 106 ± 22 mmHg
- LVP change vs before administration [5]: (2.3 ± 6.9) mmHg
- LVW [5]: 1.02 ± 0.44 kg · m
- LVW change vs before administration [5]: (0.00 ± 0.15) kg · m
- TPR [5]: 5683 ± 2354 dyn · s/cm^5
- TPR change vs before administration [5]: (384 ± 1293) dyn · s/cm^5
- dp/dt [5]: 1358 ± 444 mmHg/s
- dp/dt change vs before administration [5]: (97 ± 68) mmHg/s
- −dp/dt [5]: −925 ± 299 mmHg/s
- −dp/dt change vs before administration [5]: (−4 ± 80) mmHg/s
- CF [6]: 51.3 ± 21.1 ml/min/100 g
- CF change vs before administration [6]: (1.1 ± 4.2) ml/min/100 g
- CI [6]: 1.98 ± 0.84 L/min/m^2
- CI change vs before administration [6]: (−0.01 ± 0.28) L/min/m^2
- CO [6]: 1.10 ± 0.38 L/min
- CO change vs before administration [6]: (0.00 ± 0.17) L/min
- CR [6]: 1.56 ± 0.76 mmHg/ml/min/100 g
- CR change vs before administration [6]: (0.02 ± 0.15) mmHg/ml/min/100 g
- LVEDP [6]: 0.7 ± 2.6 mmHg
- LVEDP change vs before administration [6]: (−1.06 ± 0.54) mmHg
- LVP [6]: 106 ± 20 mmHg
- LVP change vs before administration [6]: (2.3 ± 5.4) mmHg
- LVW [6]: 1.02 ± 0.44 kg · m
- LVW change vs before administration [6]: (0.00 ± 0.16) kg · m
- TPR [6]: 5535 ± 2356 dyn · s/cm^5
- TPR change vs before administration [6]: (236 ± 1386) dyn · s/cm^5
- dp/dt [6]: 1367 ± 470 mmHg/s
- dp/dt change vs before administration [6]: (106 ± 54) mmHg/s
- −dp/dt [6]: −947 ± 308 mmHg/s
- −dp/dt change vs before administration [6]: (−25 ± 74) mmHg/s
- CF [7]: 51.4 ± 19.2 ml/min/100 g
- CF change vs before administration [7]: (1.2 ± 4.0) ml/min/100 g
- CI [7]: 1.94 ± 0.81 L/min/m^2
- CI change vs before administration [7]: (−0.04 ± 0.11) L/min/m^2
- CO [7]: 1.08 ± 0.36 L/min
- CO change vs before administration [7]: (−0.02 ± 0.06) L/min
- CR [7]: 1.51 ± 0.68 mmHg/ml/min/100 g
- CR change vs before administration [7]: (−0.02 ± 0.14) mmHg/ml/min/100 g
- LVEDP [7]: 0.6 ± 2.5 mmHg
- LVEDP change vs before administration [7]: (−1.16 ± 0.89) mmHg
- LVP [7]: 104 ± 23 mmHg
- LVP change vs before administration [7]: (1.2 ± 6.9) mmHg
- LVW [7]: 1.02 ± 0.47 kg · m
- LVW change vs before administration [7]: (0.00 ± 0.05) kg · m
- TPR [7]: 5513 ± 1980 dyn · s/cm^5
- TPR change vs before administration [7]: (214 ± 869) dyn · s/cm^5
- dp/dt [7]: 1348 ± 487 mmHg/s
- dp/dt change vs before administration [7]: (87 ± 77) mmHg/s
- −dp/dt [7]: −937 ± 289 mmHg/s
- −dp/dt change vs before administration [7]: (−16 ± 91) mmHg/s
- CF [8]: 51.4 ± 24.5 ml/min/100 g
- CF change vs before administration [8]: (1.2 ± 6.2) ml/min/100 g
- CI [8]: 1.92 ± 0.78 L/min/m^2
- CI change vs before administration [8]: (−0.06 ± 0.30) L/min/m^2
- CO [8]: 1.07 ± 0.36 L/min
- CO change vs before administration [8]: (−0.03 ± 0.18) L/min
- CR [8]: 1.51 ± 0.74 mmHg/ml/min/100 g
- CR change vs before administration [8]: (−0.02 ± 0.09) mmHg/ml/min/100 g
- LVEDP [8]: 0.6 ± 2.4 mmHg
- LVEDP change vs before administration [8]: (−1.11 ± 0.87) mmHg
- LVP [8]: 102 ± 23 mmHg
- LVP change vs before administration [8]: (−1.3 ± 4.7) mmHg
- LVW [8]: 0.97 ± 0.46 kg · m
- LVW change vs before administration [8]: (−0.05 ± 0.13) kg · m
- TPR [8]: 5318 ± 2153 dyn · s/cm^5
- TPR change vs before administration [8]: (19 ± 1444) dyn · s/cm^5
- dp/dt [8]: 1304 ± 459 mmHg/s
- dp/dt change vs before administration [8]: (43 ± 100) mmHg/s
- −dp/dt [8]: −885 ± 293 mmHg/s
